Experimental findings from patent US20160376286A1, “Pyrimidin-4-one derivatives and their use in the tratement, amelioration or prevention of a viral disease” (priority 2011, published 2016) are described below.

In data set [1] the target is PB2 cap binding domain (CBD) of an avian H5N1 influenza virus (Influenza A virus, UniProt Q9Q0V1). The data set is described as follows: biochemical.
Chain of PB2 cap binding domain (CBD) of an avian H5N1 influenza virus (Q9Q0V1 318-483 limits assumed): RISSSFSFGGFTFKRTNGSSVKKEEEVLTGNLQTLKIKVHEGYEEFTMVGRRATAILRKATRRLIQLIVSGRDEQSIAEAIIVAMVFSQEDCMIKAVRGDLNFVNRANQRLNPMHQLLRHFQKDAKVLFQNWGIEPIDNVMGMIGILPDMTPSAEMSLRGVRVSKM

In general, melting point refers to the temperature of the solid-liquid transition. `O=C(NO)c1cc(NS(=O)(=O)Cc2ccccc2)ccn1` showed a melting point of 187 to 192 °C.
The compound `Cc1c(-c2cnn(C)c2)sc2nc(N)[nH]c(=O)c12` showed a melting point of 335 to 345 °C.
On the same count and under the same terms, the result for `CCONC(=O)c1ccc(-c2cccc(CN(C)CCCc3ccccc3)c2)cn1.Cl` (hydrate or solvate) reads 50 to 55 °C.
On to `Cc1c(-c2cccc(Cl)c2)sc2nc(N)[nH]c(=O)c12` [SAV-7580], for which the “Biacore Binding (RU)” value in data set [1] was 21.2 89.8 11 8.9 RU.
What is called Kd is the constant that tells how readily two partners part at equilibrium. Read a low Kd as a tighter complex. Consider `Cc1c(-c2ccccc2)sc2nc(NCCN(C)C)[nH]c(=O)c12` [SAV-7583], for which, in data set [1], the “Biacore Binding (RU)” value is reported as 77.8 4.8 66 RU and the Kd amounted to 66 µM.
The matching figures for `Cc1c(-c2ccccc2Cl)sc2nc(N)[nH]c(=O)c12` [SAV-7596]: 11 29.6 13.6 RU and 11 µM.
`Cc1c(-c2cnn(C)c2)sc2nc(N)[nH]c(=O)c12` [SAV-7603] registered a dissociation constant (Kd) in data set [1] of 4.2 µM.
Same read-out and setting: the result for `Cc1c(-c2cccc(F)c2)sc2nc(N)[nH]c(=O)c12` [SAV-7606] reads 6 µM; that for `Nc1nc2sc(-c3ccccc3)c(Br)c2c(=O)[nH]1` [SAV-7631], 0.86 µM.
